Publication PMC2363984 (British Journal of Cancer, 2001)
Like-named read-outs stand apart in the source and are kept apart here.

Columns and labels:
[1] = clinical; settings: female, human, in vivo, ip, 20 mg/m2, Cmax
[2] = human, in vivo, ip; for MRT / T1/2: female
[3] = tested on: ovarian cancer; set-up: method as in earlier work; settings: patients who failed platinum based chemotherapy; ref Neijt et al, 1991; Kudelka et al, 1996; Ten Bokkel Huinink et al, 1997; cited from earlier work
[4] = set-up: method as in Rowinsky et al, 1992; Verweij et al, 1993; Herben et al, 1996; settings: ref Rowinsky et al, 1992, Verweij et al, 1993, Herben et al, 1996, cited from earlier work
[5] = female, human, in vivo
[6] = cited from earlier work
[7] = tested on: DNA topoisomerase I; set-up: method as in Kingsbury et al, 1991; settings: in vitro; ref Kingsbury et al, 1991; cited from earlier work
[8] = tested on: recurrent ovarian cancer; experiment: Tumour responses to IP topotecan; format: in vivo, human
[9] = in vitro, 1994, cited from earlier work
[10] = tested on: human tumor colony forming units; set-up: method as in Burris et al, 1992; settings: in vitro; ref Burris et al, 1992; cited from earlier work
[11] = Phase I toxicity of IP topotecan (WHO grading)
[12] = clinical; settings: female, human, in vivo, ip
[13] = in vivo
[14] = cited from earlier work; remark: listed apart in the source

CC[C@@]1(O)C(=O)OCc2c1cc1n(c2=O)Cc2cc3c(CN(C)C)c(O)ccc3nc2-1 [topotecan, Topotecan]
Cmax [1]: 12100 ng/mL
MRT ([2]; 10 mg/m2): 2.6 h
T1/2 ([2]; 10 mg/m2): 1.8 h
MRT ([2]; 30 mg/m2): 3.4 h
T1/2 ([2]; 30 mg/m2): 2.3 h
CL [2]: 0.8 L/h/m2
Duration of response [3]: 22-32 weeks
Form at equilibrium ([4]; pH 7.4): open-ring form predominates
Stability in infusion fluids ([4]; pH < 4.0): stable
Stability in plasma ([4]; plasma): unstable
Tmax (time to peak plasma level after start of IP administration) [5]: 2.7 ± 1.1 h
Dose level from which plasma concentrations required for cytotoxicity in vitro were reached ([5]; ip): ≥ 15 mg/m2
T1/2 ([5]; ip): 3.7 ± 1.3 h
MRT ([5]; ip, 20 mg/m2): 6.9 h
Vss for lactone ([6]; IV administration, ref Herben et al): 94 L/m2
Terminal T1/2 for peritoneal topotecan ([6]; continuous IP infusion, ref Plaxe et al, 1998): 2.7 h
Inhibition of DNA topoisomerase I [7]: potent inhibitor
Partial responses (> 50% decrease in repeated CA125 levels) ([8]; biochemically evaluable patients): 6 of 13
Stable disease for 6-8 cycles ([8]; clinically evaluable patients): 5 of 8
Complete clinical responses ([8]; pretreated patients, IP 5-30 mg/m2): no complete clinical responses
Patients with progressive disease ([8]; three by marker and three by clinical parameters): six
Cytotoxic concentrations ([9]; ref Pizao et al): 13.7 to 229 µg/L
Cytotoxic concentration ([9]; ref Tanizawa et al): 128 µg/L
Threshold concentration for cytotoxic activity, continuous exposure [10]: 100 µg/L
Maximum tolerated dose (MTD) [11]: 20 mg/m2
AUC ([12]; 5 mg/m2, AUC): 81 ng·h/mL
MRT ([12]; 5 mg/m2, MRT): 7 h
half-life ([12]; 5 mg/m2, T1/2): 4.6 h
AUC ([12]; 10 mg/m2, AUC): 107 ng·h/mL
Cmax ([12]; 10 mg/m2, Cmax): 14 ng/mL
MRT ([12]; 10 mg/m2, MRT): 6.5 h
half-life ([12]; 10 mg/m2, T1/2): 3.9 h
Tmax ([12]; 10 mg/m2, Tmax): 1.7 h
Tmax ([12]; 15 mg/m2, Tmax): 1.6 h
MRT ([12]; 20 mg/m2, MRT): 8.1 h
half-life ([12]; 20 mg/m2, T1/2): 4.4 h
Tmax ([12]; 20 mg/m2, Tmax): 3 h
Cmax ([12]; 30 mg/m2, Cmax): 145 ng/mL
Tmax ([12]; 30 mg/m2, Tmax): 1.8 h
half-life ([12]; T1/2): 5.2 h
half-life ([12]; T1/2 of lactone in this study (discussion)): 5.5 h
Tmax ([12]; Tmax (time to peak plasma level after start of IP administration)): 2.1 h
Patients with nausea and/or vomiting grade I-II ([13]; female, human): 12 patients
Platelets toxicity Grade III, worst haematologic toxicity (number) ([13]; female, human, 74 cycles): 2
Platelets toxicity Grade IV, worst haematologic toxicity (number) ([13]; female, human, 74 cycles): 0
WBC toxicity Grade III, worst haematologic toxicity (number) ([13]; female, human, 74 cycles): 5
WBC toxicity Grade IV, worst haematologic toxicity (number) ([13]; female, human, 74 cycles): 1
Duration of myelosuppression ([13]; female, human, ip): < 7 days
Recommended dose for further phase II trials ([13]; female, human, ip): 20 mg/m2
Bleeding episodes [13]: No bleeding episodes
Patients with abdominal pain grade I [13]: six
Patients with nausea and vomiting grade III [13]: three
Dose limiting toxicity (DLT) ([13]; ip): acute hypotension, chills and fever
Patients with generalized transient skin rash ([13]; ip): four
Recommended dosage ([14]; continuous 24-h IP infusion, ref Plaxe et al, 1998): 3 mg/m2
Dose limiting toxicity in most studies ([14]; ref Abbruzzese et al, 1993, Kantarjian et al, Rowinsky et al, 1994, Van Warmerdam et al, 1995, Hochster et al): neutropenia
